One assay relates to C57BL/6 male mice. The assay is described as follows: Low-dose streptozotocin (LDSTZ) diabetes model. Type of assay: in vivo, mouse. Particulars: 100 mg/kg daily i.p. The method, then: C57BL/6 male mice or JAK3-deficient and WT mice (8-10-wk-old) were injected intraperitoneally with low-dose (40 mg/kg ) of STZ (Sigma, St Louis, Mo.) daily for 5 consecutive days, for induction of autoimmune experimental diabetes (LDSTZ). STZ was dissolved in citrate buffer pH 4.0 on ice, and injected within 10 min of preparation. Mice were monitored for diabetes development by testing blood glucose from the second week (day 7) after the STZ administrations by One Touch Profile diabetes tracking system (Lifescan, Milpitas, Calif.). Mice with glycemia over 220 mg/dl on three consecutive tests were considered diabetic, with the first detection of chronic glycemia taken as the date of diabetes onset. A group of C57BL/6 males was treated with WHI-P131-100 mg/kg/day, i.p., devided in two equal doses, from a beggining of the experiment till day 25.

A further assay addresses T1, human JAK3 (Homo sapiens, UniProt P52333).
T1 sequence (P52333 1-1124): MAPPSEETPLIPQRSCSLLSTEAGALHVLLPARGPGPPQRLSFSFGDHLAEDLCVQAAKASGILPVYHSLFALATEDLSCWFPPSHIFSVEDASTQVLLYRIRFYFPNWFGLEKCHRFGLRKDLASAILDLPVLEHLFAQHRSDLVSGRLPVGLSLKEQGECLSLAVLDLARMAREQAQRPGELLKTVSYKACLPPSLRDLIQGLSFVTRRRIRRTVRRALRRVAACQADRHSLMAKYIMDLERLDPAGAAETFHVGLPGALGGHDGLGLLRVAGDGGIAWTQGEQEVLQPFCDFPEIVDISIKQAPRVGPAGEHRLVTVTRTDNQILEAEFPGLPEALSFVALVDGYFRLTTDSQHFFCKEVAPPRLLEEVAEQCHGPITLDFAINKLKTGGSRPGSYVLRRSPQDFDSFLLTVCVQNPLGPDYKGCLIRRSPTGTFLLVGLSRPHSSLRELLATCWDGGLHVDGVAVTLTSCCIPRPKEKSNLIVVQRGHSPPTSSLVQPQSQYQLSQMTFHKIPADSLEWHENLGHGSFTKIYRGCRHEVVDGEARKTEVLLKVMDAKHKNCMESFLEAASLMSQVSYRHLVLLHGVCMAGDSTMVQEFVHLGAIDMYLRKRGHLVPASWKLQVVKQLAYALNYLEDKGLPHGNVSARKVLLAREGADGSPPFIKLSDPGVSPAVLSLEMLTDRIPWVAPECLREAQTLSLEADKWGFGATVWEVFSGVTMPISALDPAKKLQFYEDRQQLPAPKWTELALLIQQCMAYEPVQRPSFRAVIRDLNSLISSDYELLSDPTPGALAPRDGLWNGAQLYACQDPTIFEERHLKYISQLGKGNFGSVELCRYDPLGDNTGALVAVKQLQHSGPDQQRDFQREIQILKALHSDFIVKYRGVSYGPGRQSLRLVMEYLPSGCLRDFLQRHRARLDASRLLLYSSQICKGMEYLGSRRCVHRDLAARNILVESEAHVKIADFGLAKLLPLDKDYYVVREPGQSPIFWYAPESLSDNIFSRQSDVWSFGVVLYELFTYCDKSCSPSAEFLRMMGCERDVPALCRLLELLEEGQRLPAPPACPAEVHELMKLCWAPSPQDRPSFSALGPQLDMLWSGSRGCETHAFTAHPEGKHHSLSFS
The assay can be described thus: JAK3 immune complex kinase assay (JAK3 immunoprecipitated from KL2 EBV-transformed B cell line). Type of assay: biochemical. Particulars: JAK3 kinase assay, KL2 cell-derived human JAK3; read-out: IC50. The method, then:
In JAK3 immune complex kinase assays (17, 22), KL-2 EBV-transformed human lymphoblastoid B cells (native JAK3 kinase assays) or insect ovary cells (recombinant JAK3 kinase assays) were lysed with NP-40 lysis buffer (50 mM Tris, pH 8, 150 mM NaCl, 5 mM EDTA, 1% NP-40, 100 μM sodium orthovanadate, 100 μM sodium molybdate, 8 μg/ml aprotinin, 5 μg/ml leupeptin, and 500 μM PMSF) and centrifuged 10 min at 13000× g to remove insoluble material. Samples were immunoprecipitated with antisera prepared against JAK3. The antisera were diluted and immune complexes collected by incubation with 15 μl protein A Sepharose. After 4 washes with NP-40 lysis buffer, the protein A Sepharose beads were washed once in kinase buffer (20 mM MOPS, pH7, 10 mM MgCl2) and resuspended in the same buffer. Reactions were initiated by the addition of 25 μCi [γ^32P] ATP (5000 Ci/mMole) and unlabeled ATP to a final concentration of 5 μM. Reactions were terminated by boiling for 4 min in SDS sample buffer. Samples were run on 9.5% SDS polyacrylamide gels and labeled proteins were detected by autoradiography. Following electrophoresis, kinase gels were dried onto Whatman 3M filter paper and subjected to phosphorimaging on a Molecular Imager (Bio-Rad, Hercules, Calif.) as well as autoradiography on film. For each drug concentration, a kinase activity index (KA) was determined by comparing the kinase activity in phosphorimager units (PIU) to that of the baseline sample. In some experiments, cold kinase assays were performed, as described by (Uckun, F. M., et al., Clin. Can. Res. 4: 901-912, 1998).
We first used immune complex kinase assays to compare the effects of the synthesized dimethoxyquinazoline compounds on the enzymatic activity of human JAK3 immunoprecipitated from the KL2 EBV-transformed human lymphoblastoid B cell line.

The test system of a further assay is NALM-6 cells. The assay can be described thus: In situ TUNEL apoptosis assay. Type of assay: cell-based. Particulars: Homo sapiens, 10-500 μM, 48 hours, read-out: EC50, percentage of apoptotic cells (TUNEL). From the text:
Apoptosis Assays Cells were examined for apoptotic changes after treatment with compound 6 by the in situ terminal […] transferase-mediated dUTP end-labeling (TUNEL) assay using the ApopTag apoptosis detection kit (Oncor, Gaithersburg, Md.) according to the manufacturer's recommendations, as detailed in our earlier reports (Zhu, D. -M., et al., Clin. Can. Res. 4: 2967-2976, 1998; D'Cruz, O., P., G., and Uckun, F. M. Biology of Reproduction. 58: 1515-1526, 1998).
To confirm that compound 6 can induce apoptosis in leukemia cells, the TdT-mediated labeling of 3′-OH termini with digoxigenin-conjugated UTP using the in situ TUNEL assay method combined with confocal laser scanning microscopy was employed. At 48 hours after treatment with compound 6 at concentrations ranging from 10 μM to 500 μM, NALM-6 cells were examined for digoxigenin-dUTP incorporation using FITC-conjugated anti-digoxigenin (green fluorescence) and propidium iodide counterstaining (red fluorescence). […] FIG. 8B.1 and 8B.2 depict the two-color confocal microscopy images of vehicle-treated control cells and cells treated with 100 μM compound 6. […] Because of their exquisite sensitivity in detecting DNA fragments released from a small percentage of apoptotic cells, the DNA gel assays of apoptosis are uniquely suited to examine the nonspecific toxicity of new antileukemic agents.

For 1 compound, diabetic mice, IC50 and EC50 results are on record in patent US6469013B2, “Therapeutic compounds” (Parker Hughes Institute, priority 1998, dated 2002).

For `COc1cc2ncnc(Nc3ccc(O)cc3)c2cc1OC` [WHI-P131, 4-(4′-hydroxyl-phenyl)-amino-6,7-dimethoxyquinazoline], the diabetic mice with C57BL/6 male mice (day 7 post first STZ injection) was found to be 20%; in the assay on C57BL/6 male mice (day 9), 50%; with C57BL/6 male mice (day 11), 65%. Further, the IC50 at human JAK3 turned out to be 9.1 µM. Moreover, the EC50 in the assay on NALM-6 cells stood at 84.6 µM.
